In test [1] the target is Peroxisome proliferator-activated receptor gamma/Nuclear receptor coactivator 3 (Homo sapiens, UniProt P37231). The test is classed as functional.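 Further: agonist potency for raising coactivator recruitment to the receptor.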
Test [2] addresses Peroxisome proliferator-activated receptor gamma/Nuclear receptor coactivator 2 (Homo sapiens, UniProt P37231). Format: functional.
The target of test [3] is Peroxisome proliferator-activated receptor gamma/Nuclear receptor coactivator 1 (Homo sapiens, UniProt P37231). The test is classed as functional.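 Further: agonist potency as compounds enhance coactivator SRC-1 recruitment to PPARgamma.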
Sequence of Peroxisome proliferator-activated receptor gamma/Nuclear receptor coactivator 1 (P37231 whole entry): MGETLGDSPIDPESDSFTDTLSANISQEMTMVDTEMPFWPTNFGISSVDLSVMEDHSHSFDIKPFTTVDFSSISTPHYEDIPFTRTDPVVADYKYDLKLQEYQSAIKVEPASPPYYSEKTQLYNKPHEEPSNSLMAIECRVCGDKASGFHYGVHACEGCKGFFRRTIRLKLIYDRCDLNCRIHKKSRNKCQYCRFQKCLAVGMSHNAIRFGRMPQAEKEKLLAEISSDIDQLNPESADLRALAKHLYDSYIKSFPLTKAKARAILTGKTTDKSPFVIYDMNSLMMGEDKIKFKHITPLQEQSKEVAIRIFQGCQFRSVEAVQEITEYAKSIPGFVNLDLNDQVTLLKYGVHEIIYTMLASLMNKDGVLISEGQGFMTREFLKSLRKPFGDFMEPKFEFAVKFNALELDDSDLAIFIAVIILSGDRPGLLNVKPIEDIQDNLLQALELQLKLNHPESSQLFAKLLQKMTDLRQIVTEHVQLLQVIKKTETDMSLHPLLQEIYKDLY
Sequence of Peroxisome proliferator-activated receptor gamma/Nuclear receptor coactivator 1 (Q15788 whole entry, further chain): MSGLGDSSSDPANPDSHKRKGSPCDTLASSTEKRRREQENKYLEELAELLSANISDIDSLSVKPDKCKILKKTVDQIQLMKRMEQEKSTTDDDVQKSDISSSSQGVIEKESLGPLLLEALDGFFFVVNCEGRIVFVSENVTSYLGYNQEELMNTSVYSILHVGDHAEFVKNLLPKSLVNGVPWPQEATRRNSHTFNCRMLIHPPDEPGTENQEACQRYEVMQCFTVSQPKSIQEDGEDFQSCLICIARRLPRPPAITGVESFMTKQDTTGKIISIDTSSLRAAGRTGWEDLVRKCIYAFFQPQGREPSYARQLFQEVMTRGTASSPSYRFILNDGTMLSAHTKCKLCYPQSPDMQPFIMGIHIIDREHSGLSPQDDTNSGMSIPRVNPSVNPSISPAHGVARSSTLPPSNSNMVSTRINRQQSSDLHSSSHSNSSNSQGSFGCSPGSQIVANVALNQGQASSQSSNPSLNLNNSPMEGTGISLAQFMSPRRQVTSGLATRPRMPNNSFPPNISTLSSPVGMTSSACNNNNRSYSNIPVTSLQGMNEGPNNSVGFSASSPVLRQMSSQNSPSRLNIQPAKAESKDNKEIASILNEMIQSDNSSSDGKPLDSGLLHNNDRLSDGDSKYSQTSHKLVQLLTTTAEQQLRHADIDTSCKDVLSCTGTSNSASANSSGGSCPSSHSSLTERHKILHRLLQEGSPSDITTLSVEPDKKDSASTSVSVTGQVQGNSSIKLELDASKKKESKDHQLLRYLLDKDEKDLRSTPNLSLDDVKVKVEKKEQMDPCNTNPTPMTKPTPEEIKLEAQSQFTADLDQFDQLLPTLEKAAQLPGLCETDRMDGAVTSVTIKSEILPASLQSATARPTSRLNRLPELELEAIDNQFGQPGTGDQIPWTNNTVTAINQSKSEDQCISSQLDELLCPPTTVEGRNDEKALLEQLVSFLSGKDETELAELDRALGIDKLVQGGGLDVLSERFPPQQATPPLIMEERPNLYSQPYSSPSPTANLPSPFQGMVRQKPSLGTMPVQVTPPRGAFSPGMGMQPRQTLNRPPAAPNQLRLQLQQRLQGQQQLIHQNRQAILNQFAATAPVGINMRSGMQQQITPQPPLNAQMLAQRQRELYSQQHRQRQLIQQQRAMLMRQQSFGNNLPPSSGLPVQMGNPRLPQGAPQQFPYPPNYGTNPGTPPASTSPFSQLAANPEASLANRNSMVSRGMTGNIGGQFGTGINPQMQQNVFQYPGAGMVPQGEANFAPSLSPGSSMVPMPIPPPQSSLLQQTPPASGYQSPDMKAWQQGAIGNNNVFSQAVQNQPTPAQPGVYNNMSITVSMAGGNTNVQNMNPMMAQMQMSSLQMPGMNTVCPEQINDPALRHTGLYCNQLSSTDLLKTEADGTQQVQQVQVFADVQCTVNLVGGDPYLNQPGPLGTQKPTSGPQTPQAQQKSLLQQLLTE
Test [4] concerns the target T1, Neuropeptides B/W receptor type 1 (Homo sapiens, UniProt P48145).
T1 sequence (P48145 whole entry): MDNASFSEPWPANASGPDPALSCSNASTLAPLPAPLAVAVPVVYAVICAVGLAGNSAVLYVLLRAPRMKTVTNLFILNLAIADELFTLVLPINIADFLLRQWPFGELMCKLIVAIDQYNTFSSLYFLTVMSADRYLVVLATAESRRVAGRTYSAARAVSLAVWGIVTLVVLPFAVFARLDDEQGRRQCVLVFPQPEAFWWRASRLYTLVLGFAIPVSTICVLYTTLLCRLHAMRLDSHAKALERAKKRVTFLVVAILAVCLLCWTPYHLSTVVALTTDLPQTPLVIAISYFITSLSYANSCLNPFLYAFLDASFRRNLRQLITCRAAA
Nature of the test: Fluorescence-based dose response cell-based high throughput screening assay to identify antagonists of the G-protein coupled receptor 7 (GPR7). [Related pubchem assays: 1952 (Screening assay (GPR7 antagonists).), 1880 (Summary AID.)]. The test is classed as functional.

Test [5] concerns the target Melanin-concentrating hormone receptor 1 (Homo sapiens, UniProt Q99705). Nature of the test: Fluorescence-based counterscreen for antagonists of the G-protein coupled receptor 7 (GPR7): cell-based high throughput dose response assay to identify antagonists of the melanin-concentrating hormone receptor 1 (MCHR1). The test is classed as functional. (In general: A counterscreen serves to expose hits that act by an unwanted route or on another target.)

The target of the next test is Beta-galactosidase (Escherichia coli, UniProt Q8VNN2). Nature of the test: beta-galactosidase enzyme inhibitors and activators, dose response, artefact control for CCR6 antagonist project, biochemical, E. coli enzyme, set 3 (AID 504712). The test is classed as functional.
A further test has as its target Genome polyprotein (dengue virus type 2, UniProt P29990). Nature of the test: Dengue-2 NS5 methyltransferase inhibitors, primary screen, biochemical, confirmation dose response (AID 588689). Format: functional.
Test [6] can be described thus: Fluorescence-based cell-based high throughput dose response assay for inhibitors of the interaction of nucleotide-binding oligomerization domain containing 2 (NOD2) and the receptor-interacting serine-threonine kinase 2 (RIPK2). Format: functional. To be noted: Homo sapiens.
In the next test the target is Hexokinase HKDC1 (Homo sapiens, UniProt Q2TB90). Nature of the test: HKDC1 hexokinase inhibitors, dose response, biochemical, W721R variant (AID 504729). Format: functional.
Another test addresses Beta Lactamase (Pseudomonas aeruginosa, UniProt Q932Y6). Nature of the test: beta-lactamase reporter inhibitor potency, dose response, artefact control for NOD2-RIPK2 interaction inhibitor project, BLA reporter cells, FRET fluorescence (AID 651552). The test is classed as functional, cell-based.
The nature of test [7]: THP-1 cell cytotoxicity, dose response, cytotoxicity control for Vif-APOBEC3G degradation inhibitor project, THP-1 cells (AID 1117359). Format: functional. To be noted: Human immunodeficiency virus 1, THP-1.
Test [8] concerns the target Acylamino-acid-releasing enzyme (Homo sapiens, UniProt P13798). Nature of the test: PME-1 inhibitor potency by in-gel ABPP, dose response, selectivity assay for PME-1 inhibitor project, cell lysate, mouse brain cytosol, FP-rhodamine, panel member APEH Assay Panel member description: Inhibition of N-acylaminoacyl-peptide hydrolase (APEH) (anti-target) (AID 2366).
Test [9] has as its target Neurotensin receptor type 1 (Homo sapiens, UniProt P30989). Format: functional.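 Further: Image-based confirmatory dose-response assay measuring agonist activity at NTR1; NTR1-expressing U2OS osteosarcoma cells imaged for beta-arrestin GFP spot formation; agonist potency where compounds increase beta-arrestin recruitment.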
Test [10] has as its target T2, Oxysterols receptor LXR-beta (Homo sapiens, UniProt P55055).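 Further: Cell-based luminescence dose-response assay of agonist activity at LXR, run as a confirmatory counterscreen to a daf-12 agonist screen; HEK293 cells with Gal4-LXR fusion and GAL4-driven luciferase reporter; agonist potency from rising luciferase signal of a Gal4-LXR reporter.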
T2 sequence (P55055 whole entry): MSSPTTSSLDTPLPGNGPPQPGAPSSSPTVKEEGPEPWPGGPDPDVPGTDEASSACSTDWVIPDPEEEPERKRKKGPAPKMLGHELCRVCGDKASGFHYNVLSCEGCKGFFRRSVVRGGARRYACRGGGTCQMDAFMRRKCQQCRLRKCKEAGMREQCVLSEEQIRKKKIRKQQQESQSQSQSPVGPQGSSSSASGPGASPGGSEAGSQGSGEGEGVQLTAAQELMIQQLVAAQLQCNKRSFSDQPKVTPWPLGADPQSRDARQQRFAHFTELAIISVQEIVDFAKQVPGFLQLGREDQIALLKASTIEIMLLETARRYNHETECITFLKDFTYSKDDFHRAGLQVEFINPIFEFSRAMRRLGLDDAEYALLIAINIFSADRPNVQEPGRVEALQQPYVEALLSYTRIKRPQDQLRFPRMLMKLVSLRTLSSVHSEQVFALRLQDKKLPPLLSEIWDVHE
Format: functional, cell-based.

Test [11] in a line: Luminescence Cell-Based Dose Confirmation HTS to Identify Inhibitors of Platelet Dense Granule Release. [Related pubchem assays: 1663 (Primary HTS), 1678 (Summary of Project)]. The test is classed as functional.
In test [12] the target is Luciferin 4-monooxygenase (Photinus pyralis, UniProt P08659). Nature of the test: firefly luciferase enzyme inhibitors, dose response, biochemical, luminescence (AID 1891).
Test [13] has as its target Induced myeloid leukemia cell differentiation protein Mcl-1 (Homo sapiens, UniProt Q07820). Format: functional.
Test [14] has as its target NACHT, LRR and PYD domains-containing protein 3 (Homo sapiens, UniProt Q96P20). Nature of the test: NALP3 inhibitors in yeast, dose response, luminescent (AID 488799). The test is classed as functional.
Test [15] is described as follows: HIV-1 Env-mediated cell fusion inhibitors, dose response, CCR5-tropic Env (AID 2279). Format: functional.

The structures appear in SMILES notation. The source made the active and inactive calls.

Sequence of Beta Lactamase (Q932Y6 whole entry): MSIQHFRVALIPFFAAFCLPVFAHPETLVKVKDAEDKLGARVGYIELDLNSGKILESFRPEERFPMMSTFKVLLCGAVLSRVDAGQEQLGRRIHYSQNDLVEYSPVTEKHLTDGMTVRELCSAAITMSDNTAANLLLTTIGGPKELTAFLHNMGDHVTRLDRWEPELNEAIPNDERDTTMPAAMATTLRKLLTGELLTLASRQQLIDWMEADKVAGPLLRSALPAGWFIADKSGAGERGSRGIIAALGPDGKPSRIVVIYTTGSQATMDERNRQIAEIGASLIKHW
Sequence of Neurotensin receptor type 1 (P30989 whole entry, the tested form may be a part): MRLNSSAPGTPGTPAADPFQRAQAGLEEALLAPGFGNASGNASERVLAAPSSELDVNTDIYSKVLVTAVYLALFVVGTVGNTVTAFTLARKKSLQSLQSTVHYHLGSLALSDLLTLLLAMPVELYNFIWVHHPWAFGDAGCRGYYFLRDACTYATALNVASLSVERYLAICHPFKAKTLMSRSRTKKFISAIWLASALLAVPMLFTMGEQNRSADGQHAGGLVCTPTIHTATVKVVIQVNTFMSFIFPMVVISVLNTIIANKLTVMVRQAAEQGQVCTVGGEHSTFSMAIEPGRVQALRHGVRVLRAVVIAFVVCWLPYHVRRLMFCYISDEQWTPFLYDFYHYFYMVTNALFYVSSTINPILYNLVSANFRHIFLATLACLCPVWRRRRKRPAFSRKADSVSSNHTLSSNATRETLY
Sequence of Peroxisome proliferator-activated receptor gamma/Nuclear receptor coactivator 2 (P37231 whole entry): as the sequence (P37231 whole entry) above
Sequence of Peroxisome proliferator-activated receptor gamma/Nuclear receptor coactivator 2 (Q15596 whole entry, further chain): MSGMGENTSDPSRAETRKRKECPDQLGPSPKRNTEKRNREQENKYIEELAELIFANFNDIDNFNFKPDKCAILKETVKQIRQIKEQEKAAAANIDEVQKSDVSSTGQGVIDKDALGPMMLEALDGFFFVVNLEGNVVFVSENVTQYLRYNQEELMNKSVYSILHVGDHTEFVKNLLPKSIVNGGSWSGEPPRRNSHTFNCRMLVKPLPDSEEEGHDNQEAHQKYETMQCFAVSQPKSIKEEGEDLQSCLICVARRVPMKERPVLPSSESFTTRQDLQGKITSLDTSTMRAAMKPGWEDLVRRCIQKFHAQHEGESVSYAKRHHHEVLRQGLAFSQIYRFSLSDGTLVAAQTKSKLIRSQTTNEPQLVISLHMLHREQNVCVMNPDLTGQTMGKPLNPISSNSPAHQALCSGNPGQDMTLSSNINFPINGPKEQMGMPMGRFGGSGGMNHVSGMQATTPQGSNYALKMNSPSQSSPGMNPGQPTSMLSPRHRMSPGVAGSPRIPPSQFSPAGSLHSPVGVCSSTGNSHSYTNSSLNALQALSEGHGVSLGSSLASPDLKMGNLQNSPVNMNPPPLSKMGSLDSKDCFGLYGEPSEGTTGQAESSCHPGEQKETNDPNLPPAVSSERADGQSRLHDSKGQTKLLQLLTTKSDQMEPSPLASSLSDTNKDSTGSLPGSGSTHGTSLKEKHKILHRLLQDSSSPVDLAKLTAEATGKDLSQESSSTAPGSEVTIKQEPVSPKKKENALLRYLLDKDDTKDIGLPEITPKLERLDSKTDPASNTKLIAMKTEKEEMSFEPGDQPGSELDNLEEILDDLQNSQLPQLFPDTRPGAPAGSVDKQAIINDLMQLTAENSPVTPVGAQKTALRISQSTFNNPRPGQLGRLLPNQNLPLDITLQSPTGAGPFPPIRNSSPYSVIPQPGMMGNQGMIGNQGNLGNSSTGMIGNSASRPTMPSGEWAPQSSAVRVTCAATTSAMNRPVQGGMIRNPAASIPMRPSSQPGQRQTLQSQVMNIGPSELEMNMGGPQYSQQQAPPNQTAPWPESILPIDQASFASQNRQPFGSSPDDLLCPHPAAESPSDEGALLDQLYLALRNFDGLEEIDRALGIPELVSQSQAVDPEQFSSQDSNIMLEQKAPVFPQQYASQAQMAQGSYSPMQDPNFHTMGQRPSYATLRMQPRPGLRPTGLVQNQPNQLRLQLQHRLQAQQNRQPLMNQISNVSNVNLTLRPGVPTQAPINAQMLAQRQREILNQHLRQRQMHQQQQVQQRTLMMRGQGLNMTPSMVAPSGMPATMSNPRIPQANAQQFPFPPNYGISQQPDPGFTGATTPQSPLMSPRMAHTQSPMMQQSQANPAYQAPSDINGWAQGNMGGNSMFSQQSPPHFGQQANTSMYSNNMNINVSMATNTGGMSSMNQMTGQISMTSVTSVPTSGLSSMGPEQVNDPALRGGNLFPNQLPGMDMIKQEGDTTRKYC
Sequence of Induced myeloid leukemia cell differentiation protein Mcl-1 (Q07820 whole entry, the tested form may be a part): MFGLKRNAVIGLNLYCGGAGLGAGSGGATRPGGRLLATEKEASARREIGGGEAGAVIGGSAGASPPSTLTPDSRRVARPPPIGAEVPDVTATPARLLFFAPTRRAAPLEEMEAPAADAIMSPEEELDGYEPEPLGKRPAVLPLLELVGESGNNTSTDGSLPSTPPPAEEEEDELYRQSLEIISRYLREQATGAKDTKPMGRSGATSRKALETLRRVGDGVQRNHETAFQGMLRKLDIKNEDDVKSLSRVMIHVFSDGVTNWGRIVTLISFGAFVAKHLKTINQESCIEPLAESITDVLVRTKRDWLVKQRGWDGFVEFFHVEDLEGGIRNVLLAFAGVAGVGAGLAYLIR

Turning to `CCOc1cccc(C(=O)Nc2nnc(-c3cccs3)s2)c1`, the EC50 in test [1] is 30.3 µM (not active); in test [2] it was 22.2 µM (not active); in test [3], 24.1 µM (not active).
Regarding `CN(C)C1=NC[C@H](Cc2ccccc2)N1CC1CCC(C(C)(C)C)CC1` (stereo not given in full), the IC50 in test [4] was 7.86 µM (active); in test [5], 10.6 µM (not active).
Regarding `Cc1[nH]c2ccccc2c1C1=CC(=O)C=CC1=O`, the IC50 at Beta-galactosidase is > 66.6 µM (inactive); on Genome polyprotein, 17.7 µM (active); in [6], 3.46 µM (active); on Hexokinase HKDC1, 3.4 µM (active); on Beta Lactamase, 19.9 µM (inactive). Also, the CC50 in test [7] was > 40 µM (active).
For `CC(C)(C)S(=O)(=O)/C(C#N)=C/c1cccn1S(=O)(=O)c1ccccc1`, the IC50 in test [8] is > 50 µM (inactive).
In the case of `O=C(N/N=C/c1cn(-c2ccccc2)nc1-c1cc2ccccc2o1)c1cccnc1`, the results for the EC50 (in test [9]; in [10]; in “cells”) were > 40 µM (inactive), > 67.5 µM (inactive) and > 67.5 µM (inactive), respectively.
Turning to `Oc1c(/C=N/c2ccccn2)sc2ccccc12`, the EC50 in test [11] is 11.5 µM (active); in test [12] it was 1.8 µM (active). For the same compound, the IC50 in [13] is 1.64 µM (active); in test [14] it was 10.2 µM (active).
Consider `COc1ccc(S(=O)(=O)Nc2ccccc2C(=O)Nc2nc(-c3ccc(F)cc3)cs2)cc1OC`, for which, in test [15], the IC50 is 4.41 µM (active).

The term EC50 denotes the concentration needed to bring the measured effect to its halfway point. A word on the IC50: it is the concentration at which inhibition is half-maximal. By CC50 is commonly meant the concentration giving 50% cytotoxicity.

Values taken from ChEMBL document CHEMBL1201862, “PubChem BioAssay data set” (2004).
